Converted amounts (≈) assume the structure as drawn.
What was measured:
Assay type in all cases: functional
[1] = system: Mycobacterium tuberculosis; experiment: Antitubercular activity against Mycobacterium tuberculosis H37Rv clinical isolate harboring katG S315T mutant by BACTEC 960 assay
[2] = system: Mycobacterium tuberculosis; experiment: Antitubercular activity against katG-deficient isoniazid-resistant Mycobacterium tuberculosis H37Rv ATCC 27294 by BACTEC 960 assay
[3] = system: Mycobacterium tuberculosis; experiment: Ratio of isoniazid MIC to compound MIC for Mycobacterium tuberculosis H37Rv clinical isolate harboring katG S315T mutant by BACTEC 960 assay

SMILES: O=Cc1ccc(/C=N/NC(=O)c2ccncc2)cc1
- MIC [1]: >39.5 µM
- MIC [2]: > 39.5 µM

SMILES: O=C(N/N=C/c1ccc(CO)cc1)c1ccncc1
- MIC [1]: 39.2 µM (≈ 10 µg/mL)
- MIC [2]: > 39.2 µM

SMILES: CC(=O)NNC(=O)c1ccncc1
- MIC [1]: >55.8 µM
- MIC [2]: > 55.8 µM

SMILES: O=C(N/N=C/c1cccc(CO)c1)c1ccncc1
- MIC [1]: 39.2 µM (≈ 10 µg/mL)
- MIC [2]: > 39.2 µM

SMILES: O=C(NN=C1CCC(c2ccccc2)CC1)c1ccncc1 (stereo not given)
- MIC [1]: 34.1 µM (≈ 10 µg/mL)
- MIC [2]: > 34.1 µM

SMILES: NNC(=O)c1ccncc1 [ISONIAZID]
- MIC [1]: 43.8 µM (≈ 6.01 µg/mL)
- MIC [2]: > 72.9 µM

SMILES: CCCCCC(C)C(=O)NNC(=O)c1ccncc1 (stereo not given)
- MIC [1]: >38 µM

SMILES: O=Cc1cccc(/C=N/NC(=O)c2ccncc2)c1
- MIC [1]: >39.5 µM
- MIC [2]: > 39.5 µM

SMILES: O=C(NNC1CCC(c2ccccc2)CC1)c1ccncc1 (stereo not given)
- MIC [1]: >33.9 µM
- MIC [2]: > 33.9 µM

SMILES: NNC(=O)c1ccnc(NN)c1
- MIC [1]: 47.9 µM (≈ 8.01 µg/mL)

SMILES: CCCCCCCCCC(=O)NNC(=O)c1ccncc1
- MIC [1]: 6.9 µM (≈ 2.01 µg/mL)
- Ratio [3]: 6
- MIC [2]: > 34.3 µM

SMILES: O=C(NN=C1CCCC1)c1ccncc1
- MIC [1]: 39.4 µM (≈ 8.01 µg/mL)
- MIC [2]: > 49.2 µM

SMILES: COC(=O)c1ccc(/C=N/NC(=O)c2ccncc2)cc1
- MIC [1]: 21.2 µM (≈ 6.01 µg/mL)

SMILES: O=C(N/N=C/c1ccc(Oc2ccccc2)cc1)c1ccncc1
- MIC [1]: 18.9 µM (≈ 6 µg/mL)
